Residues, ends and D or L forms follow the SMILES beside them.
What was measured:
[1] = target: HLA-A*02:01 (Homo sapiens, UniProt P04439, D140Y/D185E/D98H/E176V/E277Q/G131W/G231S/I119V/I121R/I166T/I218V/L300P/L318F/N151K/N90K/P208A/P217A/Q86G/Q94H/R138H/R169H/T345S); test: biochemical
Procedure: (§1) The affinity of peptide/HLA binding was determined as described before ([21], [22]). Briefly, biotinylated HLA Class I heavy chains were denatured and diluted into refolding buffer containing β-mercaptoethanol and varying concentrations of the test/control peptides. The mixtures were incubated with agitation at room temperature for 20–24 hours to enable peptide/HLA complex formation. The solutions containing the complexes were transferred to streptavidin plates and incubated for 30 minutes. Plates were then developed using ELISA. Absorbance measured at 450 nm was graphed against the varying concentrations of the test peptide used. The affinity of peptide/HLA binding was determined by calculating the EC50, defined as the peptide concentration resulting in half saturation. Peptides with an EC50 under 100 nM were classified as high affinity binders.

[2] = system: AAV9 capsid-specific CD8 T cells in healthy donor PBMCs; test: Peptide deconvolution FluoroSpot, CD4-depleted PBMCs expanded with Class I MAPPs pool (IFN-γ); format: cell-based, human; settings: for T cell response in tested donors / donors with the predicted binding allele (in words) / % response in donors with allele(s): CD4-depleted PBMCs expanded with Class I MAPPs pool; for T cell response in tested donors / donors with the predicted binding allele (in words): IFN-γ FluoroSpot; for Total no. of responders: 24 healthy donors, CD4-depleted PBMCs expanded 10 days with Class I MAPPs pool, matrix pools 1 µg per peptide/mL, then individual peptide 2 µg/mL, ~24 h, positive = SI ≥1.4; for % response in donors with allele(s): responders among cohort donors expressing the peptide's predicted HLA binding allele(s)
Procedure: For the identification of immunodominant CD8 T cell epitopes, the 41 HLA Class I MAPPs peptides were arranged in a matrix of 13 pools, each containing 6–7 peptides ( Supplementary Table 4 ). Per the matrix, each matrix pool was constructed by combining the peptides listed in each column or each row ([16]). Peptides present at the intersection of responding matrix pools were shortlisted and tested individually. All matrix pools were dissolved in 100% DMSO and tested at 1 µg per peptide/mL. For individual testing, peptides were dissolved in 100% DMSO and tested at 2 µg/mL. Matrix pools and individual peptides were synthesized by GenScript.
Frozen PBMCs were thawed and resuspended in AIM V+ 5% SR at 1X10^6 cells/mL. Cells were stimulated with test peptide pools (1 µg per peptide/mL) and expanded in vitro for 10 days as described previously ([17]). On Days 4 and 7, cells were supplemented with a cytokine cocktail containing IL-2 (R&D Systems, 10 units/mL), IL-7 (R&D Systems, 10 ng/mL), and IL-15 (PeproTech, 10 ng/mL). On Day 10, cells were harvested, washed, and restimulated on precoated IFN-γ FluoroSpot plates (MabTech) in triplicates (125,000 cells/well). Peptide pools (1 µg per peptide/mL) or individual peptides (2 µg/mL, for deconvolution studies) were used for restimulation. Anti-CD3 antibody (MabTech, 100 ng/mL) and DMSO were used as positive and negative controls respectively. Plates were incubated at 37 degrees Celsius for ~ 24 hours and processed as described in the previous section.
For experiments involving T cell depletion, CD4 T cells were depleted via magnetic separation using human CD4 Microbeads (Miltenyi Biotec) and an AutoMACS separator (Miltenyi Biotec) according to manufacturer’s instructions. Depleted cells were washed with MACS buffer prior to seeding on culture plates.
For FluoroSpot assays, results were expressed as Spot Forming Units (SFU), calculated as the spot count per million PBMCs. The Stimulation Index (SI) was calculated as the average SFU in test wells/average SFU in DMSO control wells. For assays with fresh PBMCs, an SI of 2 or higher with a minimum of 50 SFU was counted as a positive IFN-γ/TNF-α response. For assays with expanded PBMCs, an SI of 1.4 or higher was set as the cutoff for a positive IFN-γ response. Predicted HLA binding alleles for each peptide were determined using MHCMotifDecon 1.0 as previously described ([13], [14], [23]). Predicted binding affinities for identified epitopes were determined using NetMHC 4.0 ([24]). Data tables and heatmaps were created using Excel. Data analysis and graphical representations were performed on Graph Pad Prism 10.
To identify the immunodominant CD8 T cell epitopes within the HLA Class I MAPPs peptides, we utilized a system of matrix pools which facilitates rapid mapping of immunodominant epitopes when investigating a large number of peptides. The 41 HLA Class I MAPPs peptides were arranged into 13 matrix pools (MPs), each containing 6–7 peptides ( Supplementary Table 4 ). The matrix arrangement allows each Class I peptide to feature in two MPs, and a restimulation response to both MPs containing a specific peptide identifies putative immunodominant peptides that can be verified on an individual basis. Peptide deconvolution was performed on a cohort of 24 healthy donors. PBMCs were depleted of CD4 T cells and expanded as described before with the Class I MAPPs pool (41 peptides). Expanded PBMCs were restimulated on FluoroSpot assays with the 13 MPs.

[3] = target: HLA-A*68:01 (Homo sapiens, UniProt P04439, A269V/D185E/E176V/E277Q/E87N/F33Y/G231S/I121M/I166T/I218V/L180W/L300P/L318F/N151K/P208A/P217A/Q86R/R169H/T345S); test: biochemical
Procedure: as §1

[4] = target: HLA-C*03:03 (Homo sapiens, UniProt P10321, A176E/A330V/A97T/C25G/C350S/D114A/D33Y/E197K/G115R/L119I/L127V/L171W/L218V/M285V/M309V/M331V/P208H/Q277E/Q291P/R243W/R45H/S123Y/S140Y/S297R/S48A/T118I/T187L/T329A/T363A/V319A); settings: C*03:03 measured as substitute for C*03:04; EC50 = peptide concentration at half saturation; refolding 20–24 h, room temperature, ELISA 450 nm; <100 nM = high affinity
Procedure: as §1

[5] = target: HLA-B*40:01 (Homo sapiens, UniProt P01889, A65T/A93T/A95T/D138N/D98Y/E176V/E69K/N87E/Q56L/Q94N/R180L/S121R/S35A/S48T/T167S/V36M/W171L/Y33H/Y91S); test: biochemical
Procedure: as §1

[6] = target: HLA-B*27:05 (Homo sapiens, UniProt P01889, D138H/D201E/E176V/E204Q/G107R/H137Y/K202T/N104T/N87E/Q56L/Q94K/R106L/R155S/R180L/S101D/S121N/S48T/Y140D/Y33H/Y91C); test: Peptide/HLA binding affinity assay; settings: EC50 = peptide concentration at half saturation; HLA heavy chain refolded with varying peptide conc., 20–24 h, room temperature, ELISA 450 nm; <100 nM = high affinity
Source text: Plates were then developed using ELISA.

[7] = target: HLA-B*35:01 (Homo sapiens, UniProt P01889, A329T/A93T/A95T/C349S/D201E/D98Y/E176V/E187L/E204Q/E69T/I218V/K202T/L119I/Q94N/R155S/R180L/S121R/S35A/S48A/T118I/V127L/V306I/V36M/Y140S/Y91F); test: biochemical
Procedure: as §1

[8] = target: HLA-A*01:01 (Homo sapiens, UniProt P04439, A114D/A174V/A182V/D101N/D185E/E176A/E190D/L180R/Q94H/R68K/S129P/T187R/V100A/V91M/W191G); test: biochemical
Procedure: as §1

[9] = target: HLA-C*07:01 (Homo sapiens, UniProt P10321, K90N/S123Y); test: biochemical
Procedure: as §1

Which EC50 [1] does the source give for CC[C@H](C)[C@H](NC(=O)[C@@H](N)CC(C)C)C(=O)N[C@@H](CC(=O)O)C(=O)N[C@@H](CCC(N)=O)C(=O)N[C@@H](Cc1ccc(O)cc1)C(=O)N[C@@H](CC(C)C)C(=O)N[C@@H](Cc1ccc(O)cc1)C(=O)N[C@@H](Cc1ccc(O)cc1)C(=O)N[C@@H](CC(C)C)C(=O)O [Peptide 24] (H-LIDQYLYYL-OH) here?
Its EC50 is 0.6 nM.

TDSDYQLPYVL [Peptide 13] was tested. Which “T cell response in tested donors / donors with the predicted binding allele (in words)” value [2] did it give?
The value was “elicited a T cell response”.

What about the Responding donors ([2]; peptide deconvolution in 24 healthy donors, '-' = no responding donor, IFN-γ, SI ≥1.4) of the same compound?
Its Responding donors is “Donor # 442”.

With CSCC[C@H](NC(=O)[C@H](CC(N)=O)NC(=O)[C@H](CO)NC(=O)[C@@H]1CCCN1C(=O)CNC(=O)[C@H](C)NC(=O)[C@@H](NC(=O)[C@@H](N)CO)C(C)C)C(=O)N[C@@H](C)C(=O)N[C@H](C(=O)N[C@@H](CCC(N)=O)C(=O)NCC(=O)N[C@@H](CCCNC(=N)N)C(=O)O)C(C)C [Peptide 26] (H-SVAGPSNMAVQGR-OH) as the compound, how does the EC50 [3] read?
The EC50 was 1.9 nM.

What about the “Binding affinity (nM), C*03:03” value [4] of the same compound?
Its value is “Non-binder”.

For “SQAVGRSSF [Peptide 17, predicted allele B*15:01]”, which “Total no. of responders” value ([2]; IFN-γ) is on record?
Its value is 0.

What about the “T cell response in tested donors / donors with the predicted binding allele (in words)” value [2] of the same compound?
The value was “did not elicit a response”.

What about the “% response in donors with allele(s)” value ([2]; IFN-γ, SI ≥1.4) of the same compound?
Its value is 0/2 (0%).

How did the EC50 [5] turn out when CSCC[C@H](NC(=O)[C@H](CCC(N)=O)NC(=O)[C@H](CO)NC(=O)[C@@H]1CCCN1C(=O)[C@H](Cc1ccccc1)NC(=O)[C@H](Cc1ccc(O)cc1)NC(=O)[C@H](CCC(=O)O)NC(=O)[C@@H](N)CC(C)C)C(=O)N[C@@H](CC(C)C)C(=O)O [Peptide 19] (H-LEYFPSQML-OH) was run?
The EC50 was 0.1 nM.

How did the EC50 [6] turn out when CC(C)[C@H](NC(=O)[C@H](C)NC(=O)[C@H](CCCNC(=N)N)NC(=O)CN)C(=O)N[C@@H](Cc1ccccc1)C(=O)N[C@@H](CCC(N)=O)C(=O)N[C@@H](C)C(=O)N[C@@H](CCCCN)C(=O)N[C@@H](CCCCN)C(=O)O [Peptide 5] (H-GRAVFQAKK-OH) was run?
Its EC50 is 83.9 nM.

“QPAKKRLNF [Peptide 7, predicted allele B*07:02]” was tested. Which “Total no. of responders” value ([2]; IFN-γ) did it give?
The value was 0.

And the “T cell response in tested donors / donors with the predicted binding allele (in words)” value [2]?
The value was “did not elicit a response”.

And the “% response in donors with allele(s)” value ([2]; IFN-γ, SI ≥1.4)?
Its value is 0/6 (0%).

How did the EC50 [7] turn out when CC(C)C[C@H](NC(=O)[C@H](Cc1c[nH]cn1)NC(=O)[C@H](CC(N)=O)NC(=O)[C@H](CC(N)=O)NC(=O)[C@H](Cc1ccc(O)cc1)NC(=O)[C@@H](NC(=O)[C@@H]1CCCN1C(=O)[C@@H](N)CC(C)C)[C@@H](C)O)C(=O)N[C@@H](Cc1ccc(O)cc1)C(=O)O [Peptide 11] (H-LPTYNNHLY-OH) was run?
Its EC50 is 96.7 nM.

With CC(C)[C@H](NC(=O)[C@H](CC(N)=O)NC(=O)[C@H](CCC(=O)O)NC(=O)[C@H](Cc1ccccc1)NC(=O)[C@H](CCC(=O)O)NC(=O)[C@H](Cc1ccc(O)cc1)NC(=O)[C@H](CO)NC(=O)[C@H](Cc1ccccc1)NC(=O)[C@H](CCC(N)=O)NC(=O)[C@@H](N)Cc1ccccc1)C(=O)O [Peptide 21] (H-FQFSYEFENV-OH) as the compound, how does the EC50 [1] read?
The EC50 was 0.6 nM.

With CC[C@H](C)[C@H](NC(=O)[C@@H]1CCCN1C(=O)[C@H](CCCNC(=N)N)NC(=O)[C@@H]1CCCN1C(=O)[C@H](CCC(=O)O)NC(=O)[C@H](CO)NC(=O)[C@@H](N)Cc1ccc(O)cc1)C(=O)NCC(=O)N[C@H](C(=O)N[C@@H](CCCNC(=N)N)C(=O)N[C@@H](Cc1ccc(O)cc1)C(=O)O)[C@@H](C)O [Peptide 41] (H-YSEPRPIGTRY-OH) as the compound, how does the EC50 [8] read?
The EC50 was 16.3 nM.

Which EC50 [6] does the source give for CC(C)C[C@H](N)C(=O)N[C@@H](CCCNC(=N)N)C(=O)N[C@H](C(=O)NCC(=O)N[C@@H](CC(N)=O)C(=O)N[C@@H](CC(N)=O)C(=O)N[C@@H](Cc1ccccc1)C(=O)N[C@@H](CCC(N)=O)C(=O)N[C@@H](Cc1ccccc1)C(=O)O)[C@@H](C)O [Peptide 20] (H-LRTGNNFQF-OH) here?
The EC50 was 122 nM.

Which “Binding affinity (nM), A*68:01” value ([3]; EC50 = peptide concentration at half saturation, HLA heavy chain refolded with varying peptide conc., 20–24 h, room temperature, ELISA 450 nm, <100 nM = high affinity) does the source give for CSCC[C@H](NC(=O)[C@H](CC(N)=O)NC(=O)[C@H](CO)NC(=O)[C@@H]1CCCN1C(=O)CNC(=O)[C@H](C)NC(=O)[C@@H](N)C(C)C)C(=O)N[C@@H](C)C(=O)N[C@H](C(=O)O)C(C)C [Peptide 27] (H-VAGPSNMAV-OH) here?
The value was “Non-binder”.

Which results are given for CC(C)C[C@H](NC(=O)[C@H](C)NC(=O)[C@H](Cc1c[nH]c2ccccc12)NC(=O)[C@@H](NC(=O)[C@H](CCCNC(=N)N)NC(=O)[C@@H](N)[C@@H](C)O)[C@@H](C)O)C(=O)N1CCC[C@H]1C(=O)N[C@H](C(=O)N[C@@H](Cc1ccc(O)cc1)C(=O)O)[C@@H](C)O [Peptide 10] (H-TRTWALPTY-OH)?
EC50 [9]: > 10000 nM; EC50 [6]: 120 nM
